#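 Following 48 hours of exposure in 96-well plates, responses at five concentrations were used to interpolate endpoints linearly. TGI marks complete inhibition of growth.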
# Experiments:
# Assay in all cases: NCI anticancer screen, dose series, 48 h
# SF-295 CNS = system: SF-295 CNS
# HCT-116 colon = system: HCT-116 colon
# MOLT-4 leukemia = system: MOLT-4 leukemia
# TK-10 renal = system: TK-10 renal
# HCC-2998 colon = system: HCC-2998 colon
# BT-549 breast = system: BT-549 breast
# UACC-257 melanoma = system: UACC-257 melanoma
# DU-145 prostate = system: DU-145 prostate
# IGROV1 ovarian = system: IGROV1 ovarian
# M14 melanoma = system: M14 melanoma
# A498 renal = system: A498 renal
# A549 NSCLC = system: A549 NSCLC
# OVCAR-4 ovarian = system: OVCAR-4 ovarian
# SF-268 CNS = system: SF-268 CNS
# KM12 colon = system: KM12 colon
# SK-MEL-5 melanoma = system: SK-MEL-5 melanoma
# OVCAR-3 ovarian = system: OVCAR-3 ovarian
# SK-MEL-2 melanoma = system: SK-MEL-2 melanoma
# RXF 393 renal = system: RXF 393 renal
# MALME-3M melanoma = system: MALME-3M melanoma
# SNB-75 CNS = system: SNB-75 CNS
# HS 578T breast = system: HS 578T breast
# OVCAR-8 ovarian = system: OVCAR-8 ovarian
# COLO 205 colon = system: COLO 205 colon
# OVCAR-5 ovarian = system: OVCAR-5 ovarian
# NCI-H522 lung = system: NCI-H522 lung
# NCI-H23 lung = system: NCI-H23 lung
# MDA-N = system: MDA-N
# MDA-MB-231 breast = system: MDA-MB-231 breast
# PC-3 prostate = system: PC-3 prostate
# MDA-MB-435 = system: MDA-MB-435
# NCI-H460 lung = system: NCI-H460 lung
# U251 CNS = system: U251 CNS
# 786-0 renal = system: 786-0 renal
# EKVX NSCLC = system: EKVX NSCLC
# RPMI-8226 leukemia = system: RPMI-8226 leukemia
# NCI/ADR-RES ovarian = system: NCI/ADR-RES ovarian
# LOX IMVI melanoma = system: LOX IMVI melanoma
# SK-MEL-28 melanoma = system: SK-MEL-28 melanoma
# ACHN renal = system: ACHN renal
# SK-OV-3 ovarian = system: SK-OV-3 ovarian
# UACC-62 melanoma = system: UACC-62 melanoma
# HCT-15 colon = system: HCT-15 colon
# CCRF-CEM leukemia = system: CCRF-CEM leukemia
# SW-620 colon = system: SW-620 colon
# MCF7 breast = system: MCF7 breast
# HL-60(TB) leukemia = system: HL-60(TB) leukemia
# SNB-19 CNS = system: SNB-19 CNS
# K-562 leukemia = system: K-562 leukemia
# CAKI-1 renal = system: CAKI-1 renal
# UO-31 renal = system: UO-31 renal
# HOP-62 NSCLC = system: HOP-62 NSCLC
# HT29 colon = system: HT29 colon
# NCI-H226 lung = system: NCI-H226 lung
# HOP-92 NSCLC = system: HOP-92 NSCLC
# SN12C renal = system: SN12C renal
# SR leukemia = system: SR leukemia
# SF-539 CNS = system: SF-539 CNS
# T-47D breast = system: T-47D breast
smiles,measurement,setting,value
CCN1CC2=C(NC(=S)NC2c2ccc(Cl)cc2)/C(=C/c2ccc(Cl)cc2)C1 (stereo unspecified),TGI,SF-295 CNS,> 100 µM
same,TGI,HCT-116 colon,> 100 µM
same,TGI,MOLT-4 leukemia,79.2 µM
same,TGI,TK-10 renal,> 100 µM
same,TGI,HCC-2998 colon,> 100 µM
same,TGI,BT-549 breast,> 100 µM
same,TGI,UACC-257 melanoma,> 100 µM
same,TGI,DU-145 prostate,> 100 µM
same,TGI,IGROV1 ovarian,> 100 µM
same,TGI,M14 melanoma,> 100 µM
same,TGI,A498 renal,62.1 µM
same,TGI,A549 NSCLC,> 100 µM
same,TGI,OVCAR-4 ovarian,> 100 µM
same,TGI,SF-268 CNS,> 100 µM
same,TGI,KM12 colon,> 100 µM
same,TGI,SK-MEL-5 melanoma,> 100 µM
same,TGI,OVCAR-3 ovarian,> 100 µM
same,TGI,SK-MEL-2 melanoma,> 100 µM
same,TGI,RXF 393 renal,> 100 µM
same,TGI,MALME-3M melanoma,> 100 µM
same,TGI,SNB-75 CNS,> 100 µM
same,TGI,HS 578T breast,> 100 µM
same,TGI,OVCAR-8 ovarian,> 100 µM
same,TGI,COLO 205 colon,> 100 µM
same,TGI,OVCAR-5 ovarian,> 100 µM
same,TGI,NCI-H522 lung,> 100 µM
same,TGI,NCI-H23 lung,> 100 µM
same,TGI,MDA-N,> 100 µM
same,TGI,MDA-MB-231 breast,> 100 µM
same,TGI,PC-3 prostate,> 100 µM
same,TGI,MDA-MB-435,> 100 µM
same,TGI,NCI-H460 lung,45.8 µM
same,TGI,U251 CNS,> 100 µM
same,TGI,786-0 renal,> 100 µM
same,TGI,EKVX NSCLC,> 100 µM
same,TGI,RPMI-8226 leukemia,90.9 µM
same,TGI,NCI/ADR-RES ovarian,> 100 µM
same,TGI,LOX IMVI melanoma,> 100 µM
same,TGI,SK-MEL-28 melanoma,> 100 µM
same,TGI,ACHN renal,> 100 µM
same,TGI,SK-OV-3 ovarian,> 100 µM
same,TGI,UACC-62 melanoma,> 100 µM
same,TGI,HCT-15 colon,> 100 µM
same,TGI,CCRF-CEM leukemia,87.7 µM
same,TGI,SW-620 colon,> 100 µM
same,TGI,MCF7 breast,> 100 µM
same,TGI,HL-60(TB) leukemia,> 100 µM
same,TGI,SNB-19 CNS,> 100 µM
same,TGI,K-562 leukemia,> 100 µM
same,TGI,CAKI-1 renal,> 100 µM
same,TGI,UO-31 renal,> 100 µM
same,TGI,HOP-62 NSCLC,> 100 µM
same,TGI,HT29 colon,> 100 µM
same,TGI,NCI-H226 lung,> 100 µM
Cc1nc2cccc([N+](=O)[O-])c2c(NCCCN(C)C)c1C,TGI,SF-295 CNS,> 100 µM
same,TGI,HCT-116 colon,59 µM
same,TGI,HOP-92 NSCLC,> 100 µM
same,TGI,MOLT-4 leukemia,> 85.1 µM
same,TGI,TK-10 renal,> 55.1 µM
same,TGI,HCC-2998 colon,> 54.3 µM
same,TGI,UACC-257 melanoma,57.3 µM
same,TGI,DU-145 prostate,> 100 µM
same,TGI,IGROV1 ovarian,> 100 µM
same,TGI,M14 melanoma,> 100 µM
same,TGI,SN12C renal,16.1 µM
same,TGI,A498 renal,> 54 µM
same,TGI,A549 NSCLC,> 100 µM
same,TGI,OVCAR-4 ovarian,> 100 µM
same,TGI,SF-268 CNS,> 100 µM
same,TGI,KM12 colon,> 62.4 µM
same,TGI,SK-MEL-5 melanoma,> 100 µM
same,TGI,OVCAR-3 ovarian,> 63.9 µM
same,TGI,SK-MEL-2 melanoma,> 85.6 µM
same,TGI,RXF 393 renal,> 100 µM
same,TGI,MALME-3M melanoma,> 31.6 µM
same,TGI,SNB-75 CNS,> 100 µM
same,TGI,HS 578T breast,> 100 µM
same,TGI,OVCAR-8 ovarian,> 54.7 µM
same,TGI,COLO 205 colon,39.5 µM
same,TGI,OVCAR-5 ovarian,60.2 µM
same,TGI,NCI-H522 lung,40.6 µM
same,TGI,NCI-H23 lung,> 31.6 µM
same,TGI,MDA-N,> 100 µM
same,TGI,PC-3 prostate,> 50.8 µM
same,TGI,MDA-MB-435,> 100 µM
same,TGI,NCI-H460 lung,> 59.6 µM
same,TGI,U251 CNS,> 100 µM
same,TGI,786-0 renal,> 100 µM
same,TGI,EKVX NSCLC,> 31.6 µM
same,TGI,RPMI-8226 leukemia,> 100 µM
same,TGI,NCI/ADR-RES ovarian,> 100 µM
same,TGI,LOX IMVI melanoma,> 100 µM
same,TGI,SK-MEL-28 melanoma,> 100 µM
same,TGI,ACHN renal,> 100 µM
same,TGI,SR leukemia,> 57.5 µM
same,TGI,SF-539 CNS,> 100 µM
same,TGI,SK-OV-3 ovarian,> 100 µM
same,TGI,UACC-62 melanoma,> 100 µM
same,TGI,HCT-15 colon,> 52.8 µM
same,TGI,CCRF-CEM leukemia,> 75.2 µM
same,TGI,SW-620 colon,> 100 µM
same,TGI,MCF7 breast,60.6 µM
same,TGI,HL-60(TB) leukemia,17.8 µM
same,TGI,SNB-19 CNS,> 100 µM
same,TGI,K-562 leukemia,> 76.9 µM
same,TGI,T-47D breast,> 100 µM
same,TGI,CAKI-1 renal,> 100 µM
same,TGI,UO-31 renal,> 100 µM
same,TGI,HOP-62 NSCLC,> 69.2 µM
same,TGI,HT29 colon,55.3 µM
same,TGI,NCI-H226 lung,> 90.4 µM
